Where two headings read alike, the source gives them in different places.
What was measured:
[1] = tested on: KMS-12-PE Bcl-2 WT; test: In vitro cytotoxicity CellTiter-Glo 48 h, KMS-12-PE Bcl-2 WT; assay type: cell-based; conditions: C50 = concentration needed to reach 50% of the cellular viability
Summary of the method: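 KMS-12-PE myeloma cells were lentivirally transduced with wild-type or G101V-mutant Bcl-2 and sorted by TagRFP. They were exposed to compounds as 11-point dose responses for 48 h at 37 °C, 5% CO2. Viability was read by CellTiter-Glo ATP luminescence, and C50 was the concentration giving 50% viability.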

[2] = biological target: BCL2 G101V (Homo sapiens, UniProt P10415, G101V); test: TR-FRET competitive binding assay, BCL2 G101V; conditions: BCL2 G101V; Ki determined from IC50; read-out: TR_FRET EKI_Bcl2 G101V
Summary of the method: (§1)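 Ki derived from IC50 (11-point dilution, 520/495 nm emission ratio) for displacing a fluorescein-labelled PUMA peptide (2 or 20 nM). Target was 0.5 nM E. coli-expressed Halo-tagged BCL2 (1-207) or BCLXL (2-196), terbium-labelled on Halo. Incubation 2 h at 23°C in pH 7.5 Hepes with 150 mM NaCl and 5% DMSO.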

[3] = tested on: BCL2 G101V; test: TR-FRET competitive binding assay, BCL2 G101V; parameters: species or system human; conditions: for TR_FRET EKI G101V/WT selectivty ratio: ratio Ki BCL2 G101V / Ki BCL2 WT; for TR_FRET EKI G101V/WT selectivty: ratio of Ki BCL2 G101V to BCL2 WT
Summary of the method: as §1

[4] = tested on: KMS-12-PE Bcl-2 G101V; test: In vitro cytotoxicity CellTiter-Glo 48 h, KMS-12-PE Bcl-2 G101V; assay type: cell-based; conditions: for Ratio (G101V/WT): C50 KMS-12-PE Bcl-2 G101V over C50 KMS-12-PE Bcl-2 WT; for IC50: CellTiter-Glo, 48 h, C50 = concentration needed to reach 50% of the cellular viability
Experimental: KMS-12-PE (ACC 606) were purchased from the Leibniz-Institute DSMZ (Braunschweig, Germany) and were grown at 37° C. in a humidified atmosphere with […] in media recommended by the suppliers. Lentiviral particles containing Bcl-2 wild type (also named “Bcl2 WT”) and Bcl-2 mutated on G101V (also named “Bcl2 G101V”) were cloned into pcLV-CMV-DEST-IRES-TagRFP. Lentiviral particles (1×106) were mixed with Polybrene at 8 µg/ml and transduced by spinoculation for 1 h at 32° C. and incubated overnight. After 8 days, TagRFP positive-cells were sorted by FACS. BCL2 expression was monitored by immunoblotting using anti-Flag and anti-BCL2 antibodies.
Cellular viability was monitored with the cell viability assay (CellTiter-Glo®) on KMS-12-PE WT and G101V cell lines. The CellTiter-Glo® (CTG) Luminescent Cell Viability Assay (from Promega) is a homogeneous method to determine the number of viable cells in culture based on quantitation of the ATP present, which signals the presence of metabolically active cells.
Dose response of compounds are performed with 10 mM stock solutions (DMSO), 11-points curve, in a 384-well compound plate. The assay plate is prepared by stamping 40 nL from compound dilution plate of all different concentrations (e.g. 10 mM to have final […] assay test) into a cell culture microplate, using Echo acoustic liquid handling (Labcyte, Beckman). 40 μl of cell solution is added and cells are incubated with compounds for 48 h at 37° C., 5% CO2. CTG was added to the cells (according to the manufacturer instructions) and luminescence intensity was recorded using the Pherastar plate reader (BMG).
This assay provides in vitro cellular potency of the tested Bcl-2 inhibitors, measuring the C50, defined as the concentration needed to reach 50% of the cellular viability.

[5] = biological target: BCLXL WT (Homo sapiens (Human), UniProt Q07817); test: TR-FRET competitive binding assay, BCLXL WT; conditions: for Ki: BCLXL WT, Ki determined from IC50, read-out: TR_FRET EKI BclxL; for TR_FRET EKI BCLxL/WT selectivty ratio: ratio Ki BCLxL / Ki BCL2 WT; for TR_FRET EKI BCLxL/WT selectivty: ratio of Ki BCLxL to BCL2 WT
Summary of the method: as §1

[6] = biological target: BCL2 D103Y (Homo sapiens, UniProt P10415, D103Y); test: TR-FRET competitive binding assay, BCL2 D103Y; conditions: Ki determined from IC50, read-out: TR_FRET EKI_Bcl2 D103Y
Summary of the method: as §1

[7] = biological target: BCL2 WT (Homo sapiens (Human), UniProt P10415); test: TR-FRET competitive binding assay, BCL2 WT
Summary of the method: as §1

[8] = Ki determined from IC50, read-out: TR_FRET EKI_Bcl2 WT
[9] = Ki determined from IC50, read-out: TR_FRET EKI_Bcl2

Chain of BCLXL WT (Q07817 other isoform, or with tags, fused parts or gaps): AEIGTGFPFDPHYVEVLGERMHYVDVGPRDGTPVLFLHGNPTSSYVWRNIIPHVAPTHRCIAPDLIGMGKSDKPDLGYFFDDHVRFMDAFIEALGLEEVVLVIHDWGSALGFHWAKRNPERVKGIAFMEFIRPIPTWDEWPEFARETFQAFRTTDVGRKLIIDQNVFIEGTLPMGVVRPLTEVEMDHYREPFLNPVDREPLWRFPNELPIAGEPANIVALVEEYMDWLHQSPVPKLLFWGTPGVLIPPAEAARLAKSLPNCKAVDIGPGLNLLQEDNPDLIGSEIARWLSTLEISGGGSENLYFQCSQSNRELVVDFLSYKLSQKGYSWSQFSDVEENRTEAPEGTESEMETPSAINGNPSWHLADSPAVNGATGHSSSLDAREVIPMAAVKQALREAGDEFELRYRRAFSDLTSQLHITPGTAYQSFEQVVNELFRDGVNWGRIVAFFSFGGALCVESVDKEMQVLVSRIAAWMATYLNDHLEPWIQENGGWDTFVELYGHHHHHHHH

Compound	IC50 [1] [µM]	Ki [2] [nM]	TR_FRET EKI G101V/WT selectivty ratio [3]	Ratio (G101V/WT) [4]	IC50 [4] [µM]	Ki [5] [nM]	TR_FRET EKI BCLxL/WT selectivty ratio [5]	Ki [6] [nM]	Ki [7, 8] [nM]	IC50 ([1]; Homo sapiens, KMS-12-PE) [µM]	IC50 ([4]; Homo sapiens, KMS-12-PE) [µM]	TR_FRET EKI G101V/WT selectivty [3]	TR_FRET EKI BCLxL/WT selectivty [5]	Ki [7, 9] [nM]
Cc1c(N(C(=O)c2cc(-c3cc4c(cc3C(=O)N3Cc5ccccc5C[C@H]3CN3CCCCC3)CN(C(=O)Cc3ccc(OCC(C)N5CCOCC5)cc3F)CC4)n(C)c2C)c2ccc(O)cc2)cc(C#N)n1C (single isomer, unassigned) [Example 141, N-(5-cyano-1,2-dimethyl-1H-pyrrol-3-yl)-5-[2-(2-{2-fluoro-4-[(2R or S)-2-(morpholin-4-yl)propoxy]phenyl}acetyl)-7-[(3S)-3-[(piperidin-1-yl)methyl]-1,2,3,4-tetrahydroisoquinoline-2-carbonyl]-1,2,3,4-tetrahydroisoquinolin-6-yl]-N-(4-hydroxyphenyl)-1,2-dimethyl-1H-pyrrole-3-carboxamide]	0.0085	0.3	4.7	2.2379	0.019	1.1	17.7	0.2	0.06					
Cc1c(C(=O)N(c2ccc(O)cc2)c2cc(C#N)n(C(F)F)c2C)cc(-c2cc3c(cc2C(=O)N2Cc4ccccc4C[C@H]2CN2CCCCC2)CN(C(=O)Cc2ccc(OCCN4CCOC(C)C4)cc2F)CC3)n1C (single isomer, unassigned) [Example 162, N-[5-cyano-1-(difluoromethyl)-2-methyl-pyrrol-3-yl]-5-[2-[2-[2-fluoro-4-[2-((2R or S)-2-methylmorpholin-4-yl)ethoxy]phenyl]acetyl]-7-[(3S)-3-(1-piperidylmethyl)-3,4-dihydro-1H-isoquinoline-2-carbonyl]-3,4-dihydro-1H-isoquinolin-6-yl]-N-(4-hydroxyphenyl)-1,2-dimethyl-pyrrole-3-carboxamide]		0.6	4.8	5.0958		9.2	70.8	0.3	0.13	0.0063	0.0319			
Cc1c(N(C(=O)c2cc(-c3cc4c(cc3C(=O)N3Cc5ccccc5C[C@H]3C)CN(C(=O)Cc3ccccc3C#N)CC4)n(C)c2C)c2ccc(O)cc2)cc(C#N)n1C [Example 12, N-(5-cyano-1,2-dimethyl-1H-pyrrol-3-yl)-5-{2-[2-(2-cyanophenyl)acetyl]-7-[(3R)-3-methyl-1,2,3,4-tetrahydroisoquinoline-2-carbonyl]-1,2,3,4-tetrahydroisoquinolin-6-yl}-N-(4-hydroxyphenyl)-1,2-dimethyl-1H-pyrrole-3-carboxamide]		1.7	7.7	9.14				0.4	0.22	0.0074	0.0676			
Cc1c(C(=O)N(c2ccccc2)c2cnn(C)c2)cc(-c2cc3c(cc2C(=O)N2Cc4ccccc4C[C@H]2CN2CCCCC2)CN(C(=O)Cc2ccc(OCCC4CCOCC4)cc2)CC3)n1C [Example 240]		6.7				37.5		0.15		0.0446		57.8	323	0.116
Cc1c(C(=O)N(c2ccccc2)c2cnn(C(F)F)c2)cc(-c2cc3c(cc2C(=O)N2Cc4ccccc4C[C@H]2CN2CCCCC2)CN(C(=O)Cc2ccc(OCCC4CCOCC4)cc2)CC3)n1C [Example 241]		39.2				52.7		0.64		0.0586		160.7	216	0.244
